Literature values in the CATMoS acute toxicity set (Mansouri et al. 2021).
Where “and” joins values, the source holds several entries; their conditions need not be identical. Equal entries are not always repeated.

test: rat acute oral toxicity; settings: in vivo
Excerpt: […]The data set underlying the modeling effort for this project was initially compiled by NICEATM and U.S. EPA’s CCTE. Briefly, LD50 data were collected from rat acute oral systemic toxicity tests, including limit tests, ranges/confidence intervals, and discrete LD50 values. The full data set included 21,200 LD50 entries for 15,688 substances. […] Data were reviewed to ensure that LD50 values with obvious errors in the extracted data such as unit conversion errors (e.g., comma and decimal separator misplacements) were either fixed or removed. After this review, 16,209 LD50 values remained. Many of the chemicals represented had multiple LD50 entries, requiring that a single representative value per Chemical Abstracts Service Registry Number (CASRN) identifier be defined to facilitate modeling efforts. Based on ATWG feedback and to define the representative LD50 as a protective value while accounting for the distribution across multiple LD50s, the median of the lowest quartile was computed using only discrete LD50 values (omitting limit test data and range and confidence interval data). A detailed summary of the data compilation is available online on the NICEATM webpage dedicated to the collaborative modeling project (NTP 2020).
[…][…] For categorical designations, limit test and range/confidence interval LD50 data were integrated wherever possible. As such, the number of chemicals with end point values/calls varies across the modeling end points (Table 3) based on whether chemicals had representative LD50 values and/or other data. If a chemical had both, the representative value was used to determine categorical calls rather than limit test data. Some data were useable only for certain end points and categories depending on the thresholds. For example, ranges that spanned multiple hazard categories were considered only for the binary (very toxic/nontoxic) end points and omitted from rendering a determination for hazard category assignment.
[…]The final data set comprising 11,992 chemicals was split into training and evaluation sets […], respectively. This process was performed semirandomly by ordering chemicals based on the five end points (categorical and continuous LD50 values) and partitioning every fourth record into the evaluation set accordingly. This approach was taken to ensure an equivalent distribution of the LD50 values and the different hazard categories between the training and the evaluation sets without supervised sampling of the chemicals based on structures (Figure 1A). The sources of the chemical structures were also kept equivalent between the two sets, with chemical structures obtained from DSSTox, being the highest quality, representing over 75% of each set (Figure 1B).

| SMILES | LD50 |
| --- | --- |
| Clc1ccc(CO/N=C(\Cn2ccnc2)c2ccc(Cl)cc2Cl)c(Cl)c1 | 2460 mg/kg |
| C/N=C/Nc1ccc(Cl)cc1C | 264 mg/kg |
| Cc1cc(C)n(SC(Cl)(Cl)Cl)n1 | 570 mg/kg |
| CC(C)(O)C(=O)c1ccc(OCCO)cc1 | 4080 mg/kg |
| CCCCON=O | 83 mg/kg |
| CN(C)CN(C)C | 1770 mg/kg |
| O=C(c1ccc(Cl)cc1)c1ccccc1-c1ncc[nH]1 | 600 mg/kg |
| CC(=O)N(O)CCCCCNC(=O)CCC(=O)N(O)CCCCCNC(=O)CCC(=O)N(O)CCCCCN | 17300 mg/kg |
| C=C(C)c1ccccc1 | 4900 mg/kg |
| O=C=Nc1ccc(Cc2ccc(N=C=O)cc2)cc1 | 9200 mg/kg |
| Cc1nccnc1C | 613 mg/kg |
| Cc1ccccc1N=NN(C)C | 350 mg/kg |
| CN(SSC(C)(C)C)C(=O)ON=C1SC(C)(C)C(=O)N1C | 299 mg/kg |
| Nc1ncc2[nH]cnc2n1 | 723 mg/kg |
| CN1CN(CC(=O)O)CSC1=S | 1000 mg/kg |
| CCCCCCCC/C=C\CCCCCCCC[N+](C)(C)CC | 500 mg/kg |
| COCCOC(=O)CCCCCCCCC(=O)OCCOC | 4970 mg/kg |
| COCNC(=O)CSP(=S)(OC)OC | 600 mg/kg |
| CCN(CCC#N)c1ccc(N=Nc2nc3ccc(S(C)(=O)=O)cc3s2)c(C)c1 | 400 mg/kg |
| CN | 1600 mg/kg |
| O=[N+]([O-])c1ccc([C@@H](O)[C@@H]2COC(C(Cl)Cl)=N2)cc1 | 6000 mg/kg |
| CCOC(=O)C(C)O (centres undefined) | 8200 mg/kg |
| ClC(Cl)C(Cl)C(Cl)C(Cl)Cl (centres undefined) | 400 mg/kg |
| COc1ccc(S(=O)(=O)Nc2nnc(CC(C)C)s2)cc1 | 534 mg/kg |
| CC(C)OP(=S)(OC(C)C)SCSC(C)C | 5 mg/kg |
| O=NN1CN2CN(C1)CN(N=O)C2 | 940 mg/kg |

| SMILES | LD50 |
| --- | --- |
| CCOC(=S)SCSSCP(=O)(OCC)OCC | 14 mg/kg |
| Nc1nc2ccc(Br)cc2o1 | 500 mg/kg |
| CCNC1C2CCC(C2)C1c1ccccc1 (centres undefined) | 83 mg/kg |
| CCOC1Oc2ccc(OS(C)(=O)=O)cc2C1(C)C (centres undefined) | 1130 mg/kg |
| COc1ccc2cc(C(C)C(=O)OCC(O)CO)ccc2c1 (centres undefined) | 1630 mg/kg |
| Cc1ccc(CN(C)N=O)cc1 | 400 mg/kg |
| O=C(O)C=Cc1ccc([N+](=O)[O-])o1 | 1220 mg/kg |
| CNc1nsc2ccccc12 | 576 mg/kg |
| Nc1ccc(F)cc1 | 417 mg/kg |
| CNC(=O)Oc1ccc(C)c2c1OC(C)(C)C2 | 12 mg/kg |
| O=P1(NCCCl)OCCCN1CCCl (centres undefined) | 143 mg/kg |
| CCOP(=O)(OCC)Oc1ccc2ccc(=O)oc2c1 | 29 mg/kg |
| CCCC(C)=NO | 1130 mg/kg |
| CCOC(=O)N1CC=Cc2ccccc21 | 195 mg/kg |
| CCOP(=O)(OCC)Sc1ccc([N+](=O)[O-])cc1 | 4.41 mg/kg |
| O=C(Nc1ccc(O)cc1)c1ccccc1O | 6700 mg/kg |
| COc1ccc2c(c1)OC(C)(C)[C@H](c1ccccc1)[C@H]2c1ccc(OCCBr)cc1 | 500 mg/kg |
| COP(=O)(OC)Oc1cc(C)n(C)c(=O)c1 | 2.91 mg/kg |
| COCOC | 6420 mg/kg |
| O=C1CC2(CCCC2)CC(=O)N1CCCCN1CCN(c2ncccn2)CC1 | 196 mg/kg |
| Clc1c(Cl)c(Cl)c2c(c1Cl)Oc1ccccc1O2 | 0.8 mg/kg |
| CN(N=O)C1CCS(=O)(=O)C1 (centres undefined) | 750 mg/kg |
| Clc1cc(Cl)cc(Cl)c1 | 800 mg/kg |
| CCOP(=S)(OCC)Oc1cc(C)n(CC)c(=O)c1 | 7070 mg/kg |
| CC(C)=CC(=O)O | 3560 mg/kg |
| CC[N+](CC)(CC)CCC(O)(c1ccccc1)C1CCCCC1 (centres undefined) | 1100 mg/kg |

| SMILES | LD50 |
| --- | --- |
| CC1COC(C(Cl)CCl)O1 (centres undefined) | 620 mg/kg |
| CC(Oc1ccc(Oc2ccc(Cl)cc2)cc1)C(=O)O (centres undefined) | 1200 mg/kg |
| CCN(CC)c1ccc(-c2nc(=O)n(C)nc2-c2ccc(N(CC)CC)cc2)cc1 | 650 mg/kg |
| CN(C)c1ccc(-c2nc(=O)n(C)nc2-c2ccc(N(C)C)cc2)cc1 | 3000 mg/kg |
| CCCCNc1ccc2c(c1)C(=O)N(CCN(CC)CC)C2=O | 580 mg/kg |
| CCN(CCCCCCOC(=O)c1ccc(OC)c(OC)c1)C1CCc2cc(OC)c(OC)cc2C1 (centres undefined) | 561 mg/kg |
| CN(C)CCOc1ccnc(N)n1 | 1500 mg/kg |
| CCCCN(CCCC)C(=O)CF | 37 mg/kg |
| CCCC(=NOCC)C1=C(O)CC(C2CCCSC2)CC1=O (centres undefined) | 3940 mg/kg |
| Nc1ccc(F)c(F)c1F | 699 mg/kg |
| CN(C)C(O)=Nc1ccc(-n2nc(C(C)(C)C)oc2=O)c(Cl)c1 | 1000 mg/kg |
| COC(=O)c1ccco1 | 300 mg/kg |
| C1COCCOCCNCCOCCOCCN1 | 3400 mg/kg |
| O=c1ncc2[nH]cnc2[nH]1 | 1040 mg/kg |
| CC(C)C(NC(=O)COc1ccc(Cl)cc1Cl)C(=O)O (centres undefined) | 750 mg/kg |
| C1CCC(CNC2=NCCS2)CC1 | 50 mg/kg |
| Nc1ccc(-c2ccc(N)c(Cl)c2)cc1Cl | 3820 mg/kg |
| CN=c1oc2ccccc2n1C | 1000 mg/kg |
| COC(=O)C[N+](=O)[O-] | 3770 mg/kg |
| CCCC(=O)C(CC)Cc1ccccc1 (centres undefined) | 4400 mg/kg |
| COc1ccc2c3c1O[C@H]1[C@@H](OC(=O)c4cccnc4)C=C[C@H]4[C@@H](C2)N(C)CC[C@@]341 | 840 mg/kg |
| ClC1=C(Cl)C2(Cl)C3C4OC(C5OC54)C3C1(Cl)C2(Cl)Cl (centres undefined) | 142 mg/kg |
| CC(C)=CCC(CCN1CCCCC1)(C(N)=O)c1cccc2ccccc12 (centres undefined) | 57 mg/kg |
| CCOP(=O)(Oc1ccc(Cl)cc1Cl)Oc1ccc(Cl)cc1Cl | 6200 mg/kg |
| O=C(O)c1cc2ccccc2oc1=O | 200 mg/kg |
| O=C1c2ccccc2-c2ccc3c4c(ccc1c24)-c1c(Br)ccc(Br)c1C3=O | 3570 mg/kg |

| SMILES | LD50 |
| --- | --- |
| Cc1cccc(C(=O)c2ccccc2)c1C | 4920 mg/kg |
| COC(=O)C1=C(C)NC(C)=C(C(=O)OCC(C)(C)CN(C)Cc2ccccc2)C1c1cc([N+](=O)[O-])ccc1F (centres undefined) | 30.5 mg/kg |
| CCN(CC)C(C)=O | 1500 mg/kg |
| COc1ccc(N)c(OC)c1 | 464 mg/kg |
| CCCCCC1=CCCC1=O | 2200 mg/kg |
| COc1ccc(CC2NCCc3cc(OC)c(OC)cc32)cc1OC (centres undefined) | 700 mg/kg |
| CC(N)C1(C)CCCO1 (centres undefined) | 130 mg/kg |
| CCOP(=S)(CCl)Oc1ccc([N+](=O)[O-])cc1 (centres undefined) | 127 mg/kg |
| O=P(CCCl)(OCCCl)OCCCl | 880 mg/kg |
| CC(O)CC(C)O (centres undefined) | 6860 mg/kg |
| CC1(C)COC1=O | 1470 mg/kg |
| CC1=NOC(=O)/C1=N\Nc1ccccc1Cl | 126 mg/kg |
| CC(=O)C1OC1(C)C (centres undefined) | 1610 mg/kg |
| CCOC1CC2CN3CCc4c([nH]c5cc(OC)ccc45)C3CC2C(C(=O)OC)C1OC (centres undefined) | 187 mg/kg |
| O=[N+]([O-])c1ccc(OP(=O)(CCl)c2ccccc2)cc1 (centres undefined) | 203 mg/kg |
| C=CCOC(=O)CC1CCCCC1 | 900 mg/kg |
| COc1cc(C(=O)N(C)C)nn1-c1cccc(Cl)c1 | 790 mg/kg |
| NCCCCCCCCCCC(=O)O | 14700 mg/kg |
| CNC(=O)Oc1ccccc1C1OCCO1 | 25 mg/kg |
| CCN(CC)c1nc(N(C=NC2CC(C)(C)NC(C)(C)C2)C2CC(C)(C)NC(C)(C)C2)nc(N(C=NC2CC(C)(C)NC(C)(C)C2)C2CC(C)(C)NC(C)(C)C2)n1 | 826 mg/kg |
| CC(=O)NC(=O)N(C)N=O | 200 mg/kg |
| CCN(N=O)C(C)(C)C | 1600 mg/kg |
| O=C(O)C(F)(F)C(F)(F)C(F)(F)C(F)(F)C(F)(F)C(F)(F)C(F)(F)C(F)(F)C(F)(F)F | 57 mg/kg |
| CC1=[N+](C)C2CCC1(c1ccccc1)c1ccccc12 (centres undefined) | 707 mg/kg |
| COc1ccc2c3c1OC1C(O)CCC4C(C2)N(C)CCC341 (centres undefined) | 359 mg/kg |
| Nc1cc(Cl)ccc1O | 690 mg/kg |

| SMILES | LD50 |
| --- | --- |
| O=C(O)[C@@H]1CS[C@H](c2ccccc2O)N1C(=O)CCS | 8290 mg/kg |
| CCCOC(=O)c1cc(O)c(O)c(O)c1 | 2100 mg/kg |
| CN(Cc1ccc(Cl)cc1Cl)S(N)(=O)=O | 2350 mg/kg |
| CC(CN)NCCO (centres undefined) | 4920 mg/kg |
| CN(C)CCOc1ccc(/C(=C(/CCCl)c2ccccc2)c2ccccc2)cc1 | 1700 mg/kg and 3000 mg/kg |
| CC(=O)OCCC(C)C | 16600 mg/kg |
| O=C(Cn1c(=O)sc2ccc(Cl)cc21)N1CCNCC1 | 734 mg/kg |
| Cn1nc(-c2ccccc2)c2conc2c1=O | 1000 mg/kg |
| O=C1CCc2cc(C(=O)CCCN3CCN(c4ccccc4Cl)CC3)ccc2N1 | 500 mg/kg |
| CCCCNCC1COc2cccc(OCC)c2O1 (centres undefined) | 348 mg/kg |
| CN1CCC(=C2c3ccccc3Sc3ccccc32)CC1 | 1190 mg/kg and 550 mg/kg |
| CCCC(=O)Oc1ccc(OC)cc1 | 3400 mg/kg |
| O=[N+]([O-])c1cc(I)c(O)c(I)c1 | 170 mg/kg |
| ClC1=C(Cl)C2(Cl)C3C(Cl)C(Cl)CC3C1(Cl)C2(Cl)Cl (centres undefined) | 283 mg/kg |
| CCCCc1ccc(C(=O)O)nc1 | 480 mg/kg |
| CN1CCC(=C2c3ccccc3Oc3ccc(Cl)cc32)CC1 | 319 mg/kg |
| NC1=NCC(c2ccccc2)O1 (centres undefined) | 25 mg/kg |
| CCCCCCCN1C(C)=CSC1=Cc1scc(C)[n+]1CCCCCCC | 460 mg/kg |
| ClC(Cl)=C(c1ccc(Cl)cc1)c1ccccc1Cl | 880 mg/kg |
| CCOC(=O)Nc1ccc2c(c1)N(C(=O)CCN1CCOCC1)c1ccccc1S2 | 1000 mg/kg |
| FC(F)(F)c1nc2c(Br)cc(Br)cc2[nH]1 | 5.98 mg/kg |
| Oc1cc(Cl)c(Cl)c(Cl)c1-c1c(Cl)c(Cl)c(Cl)c(Cl)c1OCl | 360 mg/kg |
| N#CCCCCC(=O)O | 1000 mg/kg |
| Sc1nc2ccccc2s1 | 100 mg/kg |
| N#CCCC[Si](Cl)(Cl)Cl | 2830 mg/kg |
